The NIST ThermoML archive (doi:10.1021/je100825b)

Conditions: Liquid, Drop weight

N#N [nitrogen] + CCCCCCC
323.2 K
Conditions	interfacial tension [mN/m]
100 kPa	17.6
3400 kPa	16
6900 kPa	13.7
10400 kPa	12

C [methane] + CCCCCCC
298.2 K
Conditions	interfacial tension [mN/m]
100 kPa	19.8
2000 kPa	16.5
3000 kPa	15
4000 kPa	13.4
6000 kPa	10.1
8000 kPa	7.9
15000 kPa	2.3

CCCCCCC [heptane] + O=C=O
interfacial tension [mN/m]
Conditions	323 K	353 K
100 kPa	16.8	13.6
2100 kPa	–	10.6
3100 kPa	10.1	–
4000 kPa	–	7.8
4500 kPa	7.8	–
5500 kPa	5.7	–
5600 kPa	–	6.1
6900 kPa	–	4.7
7900 kPa	1.5	–
8500 kPa	–	2.9
9300 kPa	0.11	–
10300 kPa	–	0.8
11200 kPa	–	0.2
